According to patent US20110124033A1, “FLUORESCENCE BASED ASSAY TO DETECT SODIUM/CALCIUM EXCHANGER (NCX ) "REVERSE MODE" MODULATING COMPOUNDS” (SANOFI-AVENTIS, priority 2008, published 2011):

Columns and labels:
human NCX2 = human NCX2 (Homo sapiens, UniProt Q9UPR5)
Method: (§1) The cultured cells were detached by application of iced PBS (phosphate buffered saline) or Trypsin at least 18 hours prior to electrophysiological experiments and replated on cover slips.
(§2) Two bath solutions and pipette solutions were prepared for patch clamp experiments with the following composition:
(§3) 135 mM NMG, 5 mM MgCl2, 2 mM CaCl2, 4 mM EGTA, 30 mM HEPES, pH 7.4
(§4) 139 mM NMG, 5 mM MgCl2, 2 mM CaCl2, 30 mM HEPES, pH 7.4
(§5) 100 mM NaCl, 5 mM KCl, 2 mM CaCl2, 2 mM MgCl2, 2.1 mM EGTA, 35 mM TEA-Cl, 4 mM Mg-ATP, 0.5 mM Na-GTP,
(§6) 5.63 mM Phosphocreatine, 30 mM HEPES, […] Creatine Phosphokinase (70 ml pipette solution+3500 U filtered Creatine Phosphokinase, ad 100 ml pipette solution), pH 7.4 (NaOH)
(§7) To inhibit NCX currents, 5 mM nickel chloride was dissolved in bath solution “high calcium”. NCX activity was measured using the patch clamp technique in the whole cell configuration. The cells were clamped at room temperature (20-25° C.) to a holding potential of 0 mV. NCX currents were evoked by application of 2 mM external calcium (bathsolution “high calcium”) for 4 seconds (=control). Calcium application was repeated every 20 s. After 5 stimulations, inhibition by nickel was tested using the same protocol but activation with calcium in the presence of 5 mM nickel (5 replicates). Finally, 5 calcium pulses were applied again for washout studies. To characterize NCX currents, peak currents, transported charge and the time constant of signal decay were investigated and analyzed according to the report. All data are presented as mean±SEM.

human NCX1 = human NCX1 (Homo sapiens, UniProt P32418); details: 5 mM nickel
Method: as §1, §2, §3, §4, §5, §6, §7

human NCX3 = human NCX3 (Homo sapiens, UniProt P57103)
Sequence of human NCX3 (P57103 31-924 isoform P57103-6 limits assumed): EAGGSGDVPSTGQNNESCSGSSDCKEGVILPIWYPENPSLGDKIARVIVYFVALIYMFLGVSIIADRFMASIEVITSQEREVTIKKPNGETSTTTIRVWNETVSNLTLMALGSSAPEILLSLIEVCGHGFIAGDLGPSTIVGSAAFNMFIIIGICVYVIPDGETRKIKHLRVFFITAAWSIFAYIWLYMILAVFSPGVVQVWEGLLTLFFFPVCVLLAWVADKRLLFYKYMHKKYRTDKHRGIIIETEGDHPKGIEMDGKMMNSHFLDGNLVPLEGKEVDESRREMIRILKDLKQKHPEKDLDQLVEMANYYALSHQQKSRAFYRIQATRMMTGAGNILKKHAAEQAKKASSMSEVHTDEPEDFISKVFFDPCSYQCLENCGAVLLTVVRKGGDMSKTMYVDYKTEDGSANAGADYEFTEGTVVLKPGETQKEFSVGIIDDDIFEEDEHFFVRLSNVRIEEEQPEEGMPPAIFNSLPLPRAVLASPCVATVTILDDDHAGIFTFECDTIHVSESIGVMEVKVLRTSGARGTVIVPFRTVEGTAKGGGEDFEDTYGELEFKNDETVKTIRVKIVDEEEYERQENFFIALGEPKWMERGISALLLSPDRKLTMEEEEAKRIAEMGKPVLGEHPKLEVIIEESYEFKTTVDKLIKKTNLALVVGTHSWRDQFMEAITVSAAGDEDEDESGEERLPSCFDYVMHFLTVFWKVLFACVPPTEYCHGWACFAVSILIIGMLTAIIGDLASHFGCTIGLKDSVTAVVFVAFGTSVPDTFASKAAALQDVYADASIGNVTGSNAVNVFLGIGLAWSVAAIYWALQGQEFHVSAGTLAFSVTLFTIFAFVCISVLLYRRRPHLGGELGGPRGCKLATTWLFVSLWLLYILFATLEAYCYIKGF
Method: as §1, §2, §3, §4, §5, §6, §7

[1] = after 5 mM nickel, 5 calcium pulses for washout

Sequence of human NCX2 (Q9UPR5 21-921): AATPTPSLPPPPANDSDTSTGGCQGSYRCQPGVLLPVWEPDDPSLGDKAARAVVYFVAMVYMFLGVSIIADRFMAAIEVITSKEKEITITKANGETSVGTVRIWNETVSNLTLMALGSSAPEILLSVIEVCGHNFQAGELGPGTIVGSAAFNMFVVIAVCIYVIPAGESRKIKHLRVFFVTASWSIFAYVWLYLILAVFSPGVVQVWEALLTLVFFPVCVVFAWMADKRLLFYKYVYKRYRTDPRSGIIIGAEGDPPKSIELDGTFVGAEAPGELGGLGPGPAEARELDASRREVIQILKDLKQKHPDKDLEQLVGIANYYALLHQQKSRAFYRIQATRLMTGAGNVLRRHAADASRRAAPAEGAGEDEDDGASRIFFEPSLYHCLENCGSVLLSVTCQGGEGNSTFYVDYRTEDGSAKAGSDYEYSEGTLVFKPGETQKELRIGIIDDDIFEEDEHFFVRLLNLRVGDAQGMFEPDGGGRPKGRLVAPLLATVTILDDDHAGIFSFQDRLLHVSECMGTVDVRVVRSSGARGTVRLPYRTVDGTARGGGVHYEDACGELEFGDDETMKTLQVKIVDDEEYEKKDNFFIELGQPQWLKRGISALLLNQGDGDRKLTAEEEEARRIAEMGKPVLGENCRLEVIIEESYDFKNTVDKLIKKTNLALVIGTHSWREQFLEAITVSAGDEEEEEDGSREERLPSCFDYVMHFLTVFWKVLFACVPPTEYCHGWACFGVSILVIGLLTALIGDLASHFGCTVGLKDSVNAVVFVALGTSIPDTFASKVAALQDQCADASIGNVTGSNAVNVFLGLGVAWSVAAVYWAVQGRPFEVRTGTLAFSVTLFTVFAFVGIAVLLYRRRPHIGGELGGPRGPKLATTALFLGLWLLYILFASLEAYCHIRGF

Structure (SMILES): [Cl][Ni][Cl] [nickel, nickel chloride]
- Block of NCX2 outward currents (in words) (human NCX2; 5 mM nickel): completely and reversible blocked
- Washout after nickel block, NCX2 currents (human NCX2; [1]): 100.2±1.9%
- Block of NCX1 outward currents (in words) (human NCX1): completely and reversible blocked
- Block of NCX1 outward currents (human NCX1; reverse mode, 2 mM external Ca2+, holding potential 0 mV): 91.3±3.3%
- Block of NCX3 outward currents (in words) (human NCX3; 5 mM nickel): completely and reversible blocked
- Washout after nickel block, NCX3 currents (human NCX3; [1]): 111.5±2.4%
